# Molecular target: human PD-L1 / Human PD-1 (Homo sapiens (Human), UniProt Q9NZQ7)
# Test: Enzyme-Linked Immunosorbent Assay (ELISA), PD-1/PD-L1 binding
# Conditions: plates coated with human PD-L1, biotinylated human PD-1 added
# Experimental: 96 Well plates were coated with 1 μg/mL of human PD-L1 (obtained from R&D) in PBS overnight at 4′° C. The wells were then blocked with 2% BSA in PBS (W/V) with 0.05% TWEEN-20 for 1 hour at 37′° C. The plates were washed 3 times with PBS/0.05% TWEEN-20 and the compounds were serial diluted (1:5) in dilution medium and added to the ELISA plates. Human PD-1 and biotin 0.3 μg/mL (ACRO Biosystems) were added and incubated for 1 hour at 37° C. then washed 3 times with PBS/0.05% TWEEN-20. A second block was performed with 2% BSA in PBS (WNV)/0.05% TWEEN-20 for 10 min at 37° C. and the plates were washed 3 times with PBS/0.05% TWEEN-20. Streptavidin-HIRP was added for 1 hour at 37° C. then the plates were washed 3 times with PBS/0.05% TWEEN-20. TMB substrate was added and reacted for 20 min at 37° C. A stop solution (2 N aqueous H2SO4) was added. The absorbance was read at 450 nm using a micro-plate spectrophotometer.
# human PD-L1 / Human PD-1, sequence (Q9NZQ7 19-239): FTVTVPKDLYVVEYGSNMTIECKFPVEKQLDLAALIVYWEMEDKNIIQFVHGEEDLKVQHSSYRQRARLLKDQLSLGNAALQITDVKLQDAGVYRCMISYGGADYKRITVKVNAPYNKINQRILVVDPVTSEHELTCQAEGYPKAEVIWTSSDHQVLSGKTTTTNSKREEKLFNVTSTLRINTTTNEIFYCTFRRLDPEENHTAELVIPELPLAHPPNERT
row,Compound,IC50 [nM]
1,"Cc1ccccc1-c1cccc(-c2ccc3c(c2)CCNC3)c1C [Compd 1.117, 6-(2,2′-dimethyl-[1,1′-biphenyl]-3-yl)-1,2,3,4-tetrahydroisoquinoline]",1000 to 10000
2,Cc1c(OCCCN2CCC(F)CC2)cccc1-c1cccc(-c2ccc(CN(C)C)cc2Cl)c1C [Compd 1.095],1000 to 10000
3,COc1cc(-c2cccc(-c3cccc4c3CCNC4)c2C)cc(F)c1CN [Compd 1.022],1000 to 10000
4,"COc1cccc(-c2cccc(-c3ccc4c(c3)CCNC4)c2C)c1C [Compd 1.115, 6-(3′-methoxy-2,2′-dimethyl-[1,1′-biphenyl]-3-yl)-1,2,3,4-tetrahydroisoquinoline]",1000 to 10000
5,COC(=O)[C@@H]1CCCCN1Cc1ccc(-c2cccc(-c3cccc(OCCCN4CCC(F)CC4)c3C)c2C)cc1 [Compd 1.072],1000 to 10000
6,Cc1c(-c2ccc3c(c2)CNCC3)cccc1-c1ccc2c(c1)OCCO2 [Compd 1.128],1000 to 10000
7,COc1cc(-c2cccc(-c3cccc(-n4ccnc4)c3C)c2C)cc(F)c1CN1CC(C(=O)O)C1 [Compd 1.006],1000 to 10000
8,COc1ccc(-c2cccc(-c3cc(F)c(CN)c(OC)c3)c2C)cc1F [Compd 1.025],1000 to 10000
9,COc1cc(-c2cccc(-c3cccc(-c4cc(F)c(CN)c(OC)c4)c3C)c2C)ccc1CC(=O)O [Compd 1.001],1000 to 10000
10,COc1cc(CN(C)C)ccc1-c1cccc(-c2cccc(OCCCN3CCC(F)CC3)c2C)c1C [Compd 1.093],1000 to 10000
11,COc1ccc(-c2cccc(-c3cc(F)c(CN)c(OC)c3)c2C)c(F)c1 [Compd 1.030],1000 to 10000
12,"COc1cc(-c2cccc(-c3cccc(-c4cc(F)c(CN(C)C)c(OC)c4)c3C)c2C)cc(F)c1CNCCO [Compd 1.050, 2-(((4′″-((dimethylamino)methyl)-3,3′″-difluoro-5,5′″-dimethoxy-2′,2″-dimethyl-[1,1′:3′,1″:3″,1′″-quaterphenyl]-4-yl)methyl)amino)ethan-1-ol]",< 1000
13,COc1cc(-c2cccc(-c3cccc(CCN)c3C)c2C)cc(F)c1CN [Compd 1.023],1000 to 10000
14,Cc1c(OCCCN2CCC2(C)C)cccc1-c1cccc(-c2ccc3c(c2)CCNC3)c1C [Compd 1.125],< 1000
15,Cc1c(OCCCN2[C@H](C)CC[C@H]2C)cccc1-c1cccc(-c2ccc(CNCC(=O)O)cc2)c1C [Compd 1.101],< 1000
16,COc1cc(-c2cccc(-c3cc(F)c(CN)c(OC)c3)c2C)ccc1F [Compd 1.021],1000 to 10000
17,COc1cc(-c2cccc(-c3cccc(-c4cc(F)c(CCN)c(OC)c4)c3C)c2C)cc(F)c1CCN [Compd 1.045],< 1000
18,Cc1c(OCCCN2[C@H](C)CC[C@H]2C)cccc1-c1cccc(-c2ccc3c(c2)CC(C(=O)O)NC3)c1C (stereo partly drawn) [Compd 1.068],< 1000

# Second part, the molecule after the results:
row,IC50 [nM],Compound
1,< 1000,Cc1c(OCCCN2[C@H](C)CC[C@H]2C)cccc1-c1cccc(-c2ccc([C@H](C)N)cc2)c1C [Compd 1.098]
2,< 1000,Cc1c(OCCCN2[C@H](C)CC[C@H]2C)cccc1-c1cccc(-c2ccc(CN(C)C)cc2)c1C [Compd 1.122]
3,< 1000,Cc1c(OCCCN2[C@H](C)CC[C@H]2C)cccc1-c1cccc(-c2ccc(C(C)N)cc2)c1C (stereo partly drawn) [Compd 1.113]
4,< 1000,Cc1c(-c2ccc3c(c2)CCNC3)cccc1-c1cccc(OCCCN2[C@H](C)CC[C@H]2C)c1F [Compd 1.091]
5,< 1000,Cc1c(-c2ccc3c(c2)CCNC3)cccc1-c1cccc(-c2ccc3c(c2)CCNC3)c1C [Compd 1.042]
6,< 1000,Cc1c(OCCCN2CCC2(C)C)cccc1-c1cccc(-c2ccc3c(c2)CNCC3)c1C [Compd 1.124]
7,< 1000,Cc1c(OCCCN2[C@H](C)CC[C@H]2C)cccc1-c1cccc(-c2ccc(CNCCC(=O)O)cc2)c1C [Compd 1.097]
8,< 1000,Cc1c(OCCCN2[C@H](C)CC[C@H]2C)cccc1-c1cccc(-c2ccc3c(c2)CNC3)c1C [Compd 1.120]
9,< 1000,COc1cc(-c2cccc(-c3cccc(-c4cc(F)c(CN(C)C)c(OC)c4)c3C)c2C)cc(F)c1CN(C)C [Compd 1.059]
10,< 1000,"COc1c(-c2ccc3c(c2)CCNC3)cccc1-c1cccc(OCCCN2CCC2(C)C)c1C [Compd 1.088, 6-(3′-(3-(2,2-dimethylazetidin-1-yl)propoxy)-2-methoxy-2′-methyl-[1,1′-biphenyl]-3-yl)-1,2,3,4-tetrahydroisoquinoline]"
11,< 1000,"Cc1c(OCCCN2CCC2(C)C)cccc1-c1cccc(-c2ccc3c(c2)CCNC3)c1Cl [Compd 1.089, 6-(3′-(3-(2,2-dimethylazetidin-1-yl)propoxy)-2-chloro-2′-methyl-[1,1′-biphenyl]-3-yl)-1,2,3,4-tetrahydroisoquinoline]"
12,< 1000,COC(=O)CCCN(C)Cc1c(F)cc(-c2cccc(-c3cccc(-c4cc(F)c(CN(C)CCCC(=O)OC)c(OC)c4)c3C)c2C)cc1OC [Compd 1.057]
13,< 1000,Cc1c(OCCCN2CCC(F)CC2)cccc1-c1cccc(-c2ccc(CN(C)C)c(Cl)c2)c1C [Compd 1.081]
14,< 1000,"COc1cc(-c2cccc(-c3cccc(NC4CCNCC4)c3C)c2C)cc(F)c1CN [Compd 1.003, N-(4″-(aminomethyl)-3″-fluoro-5″-methoxy-2,2′-dimethyl-[1,1′:3′,1″-terphenyl]-3-yl)piperidin-4-amine]"
15,< 1000,"COc1cc(-c2cccc(-c3cccc(-c4cc(F)c(CNCCS(=O)(=O)O)c(OC)c4)c3C)c2C)cc(F)c1CNCCS(=O)(=O)O [Compd 1.041, 2,2′-(((3,3′″-difluoro-5,5′″-dimethoxy-2′,2″-dimethyl-[1,1′:3′,1″:3″,1′″-quaterphenyl]-4,4′″-diyl)bis(methylene))bis(azanediyl))bis(ethane-1-sulfonic Acid)]"
16,< 1000,"COc1cc(-c2cccc(-c3cccc(-c4cc(F)c(CNCCO)c(OC)c4)c3C)c2C)cc(F)c1CNCCO [Compd 1.051, 2,2′-(((3,3′″-difluoro-5,5′″-dimethoxy-2′,2″-dimethyl-[1,1′:3′,1″:3″,1′″-quaterphenyl]-4,4′″-diyl)bis(methylene))bis(azanediyl))bis(ethan-1-ol)]"
17,< 1000,Cc1c(OCCCN2[C@H](C)CC[C@H]2C)cccc1-c1cccc(-c2ccc(CCN)cc2)c1C [Compd 1.118]
18,< 1000,Cc1c(OCCCN2[C@H](C)CC[C@H]2C)cccc1-c1cccc(-c2ccc(C(C)(C)N)cc2)c1C [Compd 1.119]
19,< 1000,COc1cc(-c2cccc(-c3cccc(-c4cc(F)c(CN[C@@H]5CCC[C@@H]5O)c(OC)c4)c3C)c2C)cc(F)c1CN[C@@H]1CCC[C@@H]1O [Compd 1.046]
20,< 1000,COc1cc(-c2cccc(-c3cccc(-c4cc(F)c(CNCCO)c(OC)c4)c3C)c2C)cc(F)c1CN [Compd 1.035]
21,< 1000,CCOc1cc(-c2cccc(-c3cccc(OCCCN4[C@H](C)CC[C@H]4C)c3C)c2C)ccc1CN(C)C [Compd 1.075]
22,< 1000,Cc1c(-c2ccc3c(c2)CCNC3)cccc1-c1cccc(OCCCN2[C@H](C)CC[C@H]2C)c1Cl [Compd 1.092]
23,< 1000,COc1cc(-c2cccc(-c3cccc(OCCCN4CCC(F)CC4)c3C)c2C)cc(F)c1CN(C)C [Compd 1.078]
24,< 1000,Cc1c(OCCCN2CCC(F)CC2)cccc1-c1cccc(-c2ccc3c(c2)OCCNC3)c1C [Compd 1.080]

# — US11485708B2, “Compounds for treatment of PD-L1 diseases” (CHEMOCENTRYX, INC., priority 2019, dated 2022)
